Reference: patent US20260217712A1, “SOLID STATE FORMS OF MNK INHIBITORS” (4E Therapeutics, Inc., priority 2023, published 2026)
Converted amounts (≈) assume the structure as drawn. Like-named read-outs stand apart in the source and are kept apart here.

Tests used:
Assay type in all cases: physicochemical
[1] = Static storage at 40° C./75% RH, XRPD and HPLC post storage; conditions: for stability to storage at 40° C./75% RH (in words): 40° C./75% RH (elevated temperature and humidity); for HPLC purity post storage at 40° C./75% RH: 7 days
Procedure, shortened: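 Solids isolated as counter-ion salts of the compound were stored statically at 40° C./75% RH and then re-examined by XRPD for solid-form changes. Chemical purity after storage was checked on an Agilent HP1100/Infinity II 1260 series HPLC system fitted with a diode array detector and running OpenLAB software.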

[2] = Thermodynamic solubility in simulated media and buffers; conditions: 25° C./24 h
Experimental: The thermodynamic solubility for Pattern 11 was determined in 3 simulated media and two buffers. […]

[3] = Gravimetric vapor sorption (GVS) and XRPD post-GVS; conditions: for GVS reversible water uptake 0-90% RH: 25° C.; for Post GVS XRPD form: after double cycle GVS
Experimental: Sorption isotherms were obtained using a SMS DVS Intrinsic moisture sorption analyzer, controlled by DVS Intrinsic Control software. The sample temperature was maintained at 25° C. by the instrument controls. The humidity was controlled by mixing streams of dry and wet nitrogen, with a total flow rate of 200 mL/min. The relative humidity was measured by a calibrated Rotronic probe (dynamic range of 1.0-100% RH), located near the sample. The weight change, (mass relaxation) of the sample as a function of % RH was constantly monitored by a microbalance (accuracy±0.005 mg).
(§1) Typically, 5-30 mg of sample was placed in a tared mesh stainless steel basket under ambient conditions. The sample was loaded and unloaded at 40% RH and 25° C. (typical room conditions). A moisture sorption isotherm was performed as outlined below (2 scans per complete cycle). The standard isotherm was performed at 25° C. at 10% RH intervals over a 0-90% RH range. Typically, a double cycle (4 scans) was carried out. Data analysis was carried out within Microsoft Excel using the DVS Analysis Suite.
Sorption isotherms were obtained using a Hiden IGASorp moisture sorption analyser, controlled by Isochema HISorp software. The sample temperature was maintained at 25° C. by a Grant LT ecocool 150 re-circulating water bath. The humidity was controlled by mixing streams of dry and wet nitrogen, with a total flow rate of 250 ml·min-1. The relative humidity was measured by a calibrated Vaisala RH probe (dynamic range of 0-95% RH), located near the sample. The weight change, (mass relaxation) of the sample as a function of % RH was constantly monitored by the microbalance (accuracy±0.001 mg).
as §1, with “Typically, 20-30” for “Typically, 5-30”, “scans giving 1” for “scans per”, “within the Isochema HISorp 2019 software and exported into” for “within”, “Excel to present accordingly.” for “Excel using the DVS Analysis Suite.”

## Cc1cc(Nc2cc(N)ncn2)c(=O)n2c1C(=O)NC21CCC2(CC2)CC1 [Pattern 3]
[1]
  stability to storage at 40° C./75% RH (in words): good stability to storage
[1]; listed as Lot B
  stability to storage at 40° C./75% RH (in words): remained unchanged
[1]; 40° C./75% RH, listed as 9-5
  HPLC purity post storage at 40° C./75% RH: 98.5%
  change of chemical purity on storage at 40° C./75% RH (in words): small decrease in chemical purity
[1]; 40° C./75% RH, listed as Lot B Sample 1
  HPLC purity post storage at 40° C./75% RH: 98.8%
[2]; FaSSGF, listed as Structure (I) Pattern 3
  Solubility FaSSGF: 26 µg/mL (≈ 71 µM)
[2]; FaSSIF, listed as Lot B Sample 2
  Solubility FaSSIF: FaSSIF-0.0016 mg/mL
[2]; FeSSIF, listed as Lot B Sample 2
  Solubility FeSSIF: FeSSIF-0.0060 mg/mL
[2]; pH 2.0 buffer, listed as Lot B Sample 2
  Solubility pH 2.0: pH 2.0-0.012 mg/mL
[2]; pH 7.4 buffer
  Solubility pH 7.4: pH 7.4-0.001 mg/mL
[3]
  hygroscopicity (in words): hygroscopic
  GVS reversible water uptake 0-90% RH: 8.4 wt %
  Post GVS XRPD form: the solid form was retained
[3]; listed as Lot B Sample 1
  GVS reversible water uptake 0-90% RH: 8.4 wt % reversible water uptake
  Post GVS XRPD form: Post GVS XRPD: No change in form
  hygroscopicity (in words): Material is hygroscopic
[3]; 80-90% RH
  GVS uptake 80-90% RH: 6.3 wt % uptake 80-90% RH
[3]; listed as Lot B
  hygroscopicity (in words): hygroscopic
